# Results published in US7132547B2, “Preventives/remedies for urinary disturbance” (priority 2001, dated 2006).
# Structures can show the parent of a compound that is named as a salt.
# Tests used:
# [1] = target: T1, human erythrocyte-derived acetylcholinesterase (Homo sapiens, UniProt P22303); experiment: Measurement of acetylcholinesterase inhibitory activity (acetylthiocholine / Ellman method); assay type: biochemical; conditions: 50% inhibition concentration, repeated at least three times, read-out: AchE: IC50
# T1 construct: Human erythrocyte-drived acetylcholinesterase (Sigma) was dissolved in distilled water; purchased Sigma; host or cells: human erythrocytes (natural source)
# T1 sequence (P22303 32-617 isoform P22303-2 limits assumed): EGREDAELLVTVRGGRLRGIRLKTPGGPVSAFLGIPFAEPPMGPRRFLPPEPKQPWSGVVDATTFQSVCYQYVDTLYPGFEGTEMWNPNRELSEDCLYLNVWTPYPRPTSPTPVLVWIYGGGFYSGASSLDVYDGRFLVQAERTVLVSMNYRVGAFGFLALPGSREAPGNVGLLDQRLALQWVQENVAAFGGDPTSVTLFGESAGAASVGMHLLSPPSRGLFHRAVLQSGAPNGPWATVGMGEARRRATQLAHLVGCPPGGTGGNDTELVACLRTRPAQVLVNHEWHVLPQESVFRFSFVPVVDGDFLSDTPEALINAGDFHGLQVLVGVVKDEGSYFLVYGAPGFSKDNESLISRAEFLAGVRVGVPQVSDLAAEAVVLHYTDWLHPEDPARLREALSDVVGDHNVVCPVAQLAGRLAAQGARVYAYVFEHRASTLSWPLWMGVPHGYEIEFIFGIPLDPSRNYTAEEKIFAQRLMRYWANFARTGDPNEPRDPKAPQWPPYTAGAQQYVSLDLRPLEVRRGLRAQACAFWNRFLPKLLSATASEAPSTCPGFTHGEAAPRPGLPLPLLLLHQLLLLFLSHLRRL
# Method: a) Measurement of Acetylcholinesterase Inhibitory Activity
# Acetylcholinesterase inhibitory activity of Example compounds was measured using human erythrocyte-derived acetylcholinesterase by an acetylthiocholine method (Ellman method).
# Human erythrocyte-drived acetylcholinesterase (Sigma) was dissolved in distilled water to the concentration of 0.2 IU/mL to obtain an enzyme specimen. 20 μL of a drug solution, 30 μL of 80 mM Tris-HCL (pH 7.4), 50 μL of an enzyme specimen and 50 μL of 5 mM 5,5-dithio-bis (2-nitrobenzoic acid)(Sigma) were dispensed on a 96-well microplate, and this was shaken for 10 seconds. 50 μL of 4 mM acetylthiocholine iodide (Sigma) was added, this was shaken again and, immediately after, increase in absorbance at 414 nm was measured at 30 second intervals for 10 minutes. Enzyme activity was measured by the following equation: R=5.74×10^−7×ΔA (wherein R represents enzyme activity (mol), and ΔA represents increase in absorbance at 414 nm)
# Regarding each compound, the experiment was repeated at least three times to obtain 50% inhibition concentration (IC50). According to the similar method to the above-mentioned, acetylcholinesterase inhibitory activity of distigmine which is a known acetylcholinesterase inhibitor was measured.
# [2] = target: T2, human adrenaline α1A receptor (Homo sapiens, UniProt P35348); experiment: Measurement of α1A receptor binding inhibitory activity ([3H]-Prazosin binding to CHO-K1 membrane fraction); conditions: concentration reducing [3H]-Prazosin (2.5 nM) binding to the membrane fraction to 50%
# T2 construct: expressed in transfected cells; membrane fraction
# T2 sequence (P35348 1-466): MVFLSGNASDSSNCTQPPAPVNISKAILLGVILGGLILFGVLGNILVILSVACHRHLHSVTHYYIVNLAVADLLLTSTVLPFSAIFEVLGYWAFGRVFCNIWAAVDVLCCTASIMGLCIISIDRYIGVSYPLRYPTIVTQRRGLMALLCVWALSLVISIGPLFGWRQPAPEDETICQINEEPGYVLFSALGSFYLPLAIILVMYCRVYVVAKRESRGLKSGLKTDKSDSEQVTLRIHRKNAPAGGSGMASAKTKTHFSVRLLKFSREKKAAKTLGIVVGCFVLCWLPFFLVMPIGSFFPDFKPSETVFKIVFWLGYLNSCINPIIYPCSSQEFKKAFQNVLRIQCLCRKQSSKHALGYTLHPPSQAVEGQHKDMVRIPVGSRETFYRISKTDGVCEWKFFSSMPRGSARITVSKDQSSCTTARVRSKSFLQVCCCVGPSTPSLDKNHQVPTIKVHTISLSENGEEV
# Method: b) Measurement of α1A Receptor Binding Inhibitory Activity
# The following gene manipulation method was carried out according to the method described in a textbook (Miniatis et al., Molecular Cloning, Cold Spring Harbor Laboratory, 1989) or the method described in protocol attached to a reagent.
# (i) Preparation of Expression Plasmid for Human Adrenaline α1A Receptor
# An adrenaline α1A receptor gene was cloned from a human liver cDNA by a PCR method. A PCR reaction was performed with Gene Amp PCR System 9700 (Applied Biosystems) using 200 ng of a human liver cDNA library (TAKARA SHUZO Co., Ltd.) as a template and using TaKaRa Pyrobest DNA Polymerase (TAKARA SHUZO CO., Ltd) and adding each 50 pmol of a primer set 5′-[…]-3′ [SEQ ID No.: 1] and 5′-[…]-3[SEQ ID No.: 2] prepared making reference to a nucleotide sequence of an adrenaline α1A receptor gene which was reported by Hirasawa A. et al. (Biochem. Biophys. Res. Commun., 195, 902–909(1993)) (reaction condition: 45 cycles of 15 seconds at 94° C., and 3 minutes 30 seconds at 68° C.).
# The obtained PCR fragment was digested with restriction enzymes Eco RI (TAKARA SHUZO Co. Ltd.) and Sal I. (TAKARA SHUZO Co. Ltd.), and agarose gel electrophoresis was performed to recover DNA fragments. The DNA fragments were mixed with an animal cell expression plasmid pMSR αneo (Administration No. A99–0013) which had been digested with Eco RI and Sal I, ligated with DNA Ligation Kit Ver. 2 (TAKARA SHUZO Co. Ltd.), and a competent cell of Esherichia coli JM109 was transformed to obtain a plasmid pMSR αneoA dreα1A.
# (ii) Introduction of Plasmid for Expression of Human Adrenaline α1A Receptor into CHO-K1 Cell and Preparation of Membrane Fraction
# CHO-K1 cells which had been subcultured in a 150 cm^2 culturing flask (Corning Coaster) using Ham F12 medium (Invitrogen) containing 10% fetal bovine serum (TRACE SCIENTIFIC) was peeled with 0.5 g/L trypsin-0.2 g/L EDTA(Invitrogen), cells were washed with D-PBS(−) (Invitrogen), centrifuged (1000 rpm, 5 min.), and suspended in D-PBS(−). […]
# Hartley male guinea pigs = experiment: Effect on blood pressure in anesthetized guinea pigs; assay type: in vivo, guinea pig
# Method: Hartley male guinea pigs (Slc) weighing 300 to 350 g was anesthetized with urethane (1.2 g/kg), and retained, a cervical region was incised to expose a left common carotid artery. A polyethylene tube filled with physiological saline containing heparin (10 U.I./ml) was inserted into an artery, and blood pressure was measured with a pressure transducer. A cannulae for administering test compound was inserted into a vein at an end of left hind leg, and a test compound dissolved in distilled water was administered therethrough at 0.5 mL/kg. The blood pressure was recorded at 20 Hz using an analogue data inputting apparatus (MP-100, BIOPAC Systems), and analyzed by analyzing software (AcqKnowledge 3.5.3, BIOPAC Systems). Example compound and tamsulosin were studied for a dose at which effects were recognized in the aforementioned test a (Pressure Flow Study), and an average blood pressure just before administration of test compound and an average blood pressure 15 minutes after administration were measured. Data were statistically treated by Paired t-test.
# [3] = system: Hartley male guinea pigs loaded with phenylephrine; experiment: Pressure Flow Study using guinea pigs loaded with phenylephrine; assay type: in vivo, guinea pig; conditions: i.v., tamsulosin 0.01 mg/kg, Example 20 0.1 mg/kg, urethane-anesthetized, phenylephrine 3 μg/animal/min
# Method: Hartley male guinea pigs (Slc) weighing 300 to 350 g was anesthetized with urethane (1.2 g/kg, i.p.), and a median was incised to expose bladder. Two polyethylene tubes were inserted into bladder, and one of them was used for injecting a physiological saline and the other was used for measuring a bladder internal pressure. A cannulae was inserted into a left femoral vein, and phenylephrine was continuously administered intravenously at 3 μg/animal/min until the completion of experiment. A physiological saline was injected into bladder at a rate of 0.3 mL/min, and injection was stopped when urination was confirmed. The urinated urine weight was measured with an electron balance (HX-400, A & D) at real time. Analogue data of bladder internal pressure and urine weight were inputted into an AD transducer (MP-100, BIOPAC Systems), and digital signals were analyzed with exclusive analyzing software (AcqKnowledge 3.5.3, BIOPAC Systems). The sampling rate of data was 10 Hz, and data of urination amount and urine flow rate were subjected to a lowcut filter at 0.5 Hz in order to remove noises. The value of urine weight was differentiated to calculate urine flow rate (Q), and maximum urine flow rate (Qmax) at urination and bladder internal pressure (Pves (Qmax)) at maximum urine flow were calculated. The urination weight 1 g was converted into 1 mL to calculate the urination amount, and divided by bladder volume to obtain voiding efficiency (Voiding Efficiency). Example compound was dissolved in DMSO, and the solution was intravenously administered at 0.5 mL/kg. 10 minutes after administration of test compound, urinary reflection was recorded again, and change in urine flow rate (ΔQmax), and change in bladder internal pressure (ΔPves(Qmax)) and voiding efficiency were assessed. The change in urine flow rate (ΔQmax) and change in bladder internal pressure (ΔPves. (Qmax)) were an amount of change (Δ value) obtained by subtracting each value before administration of test compound from each value after administration, and voiding efficiency was assessed by a relative value (% of pre-value) of after administration of test compound relative to before administration. Tamsulosin which is a known α1 receptor antagonist was measured similarly. A significance diffenence was tested by a Dunnett test by comparing with each value of a vehicle (DMSO)-administered group.
# [4] = 10 minutes after administration minus before
smiles,measurement,setting,value
"CN(CCCCCCN(C)C(=O)Oc1ccc[n+](C)c1)C(=O)Oc1ccc[n+](C)c1 [Distigmine, distigmine, reference compound]",IC50,[1],723 nM
"O=C(CCC1CCN(CCc2cccc(F)c2)CC1)c1cc2c3c(c1)CCN3C(=O)CC2 [Example 84, 8-(3-[1-[2-(3-Fluorophenyl)ethyl]-4-piperidinyl]propanoyl)-1,2,5,6-tetrahydro-4H-pyrrolo[3,2,1-ij]quinolin-4-one hydrochloride]",IC50,[1],169 nM
same,IC50,[2],236 nM
"CCOc1ccccc1OCCN[C@H](C)Cc1ccc(OC)c(S(N)(=O)=O)c1 [tamsulosin, Tamsulosin, reference compound]",reduction of blood pressure,"Hartley male guinea pigs; 0.01 mg/kg, i.v.",about 40%
same,"Blood pressure, after administration","Hartley male guinea pigs; average blood pressure 15 minutes after i.v. administration, tamsulosin 0.01 mg/kg, Example 20 0.1 mg/kg",32.9 ± 3.0 mmHg
same,"Blood pressure, before administration","Hartley male guinea pigs; average blood pressure just before i.v. administration, tamsulosin 0.01 mg/kg, Example 20 0.1 mg/kg",54.5 ± 2.5 mmHg
same,change in bladder internal pressure (ΔPves(Qmax)),[3]; [4],−3.56 ± 1.09 cmH2O
same,change in maximum urine flow rate (ΔQmax),[3]; [4],0.036 ± 0.014 mL/s
same,voiding efficiency (% of pre-value),[3]; after administration relative to before,118.5 ± 13.4 %
"COc1ccccc1N1CCN(CCCNc2cc(=O)n(C)c(=O)n2C)CC1 [urapidil, reference compound]",IC50,[2],357 nM
